Experimental data from patent US9359399B2, “Synthetic peptide amides” (Cara Therapeutics, Inc., priority 2006, dated 2016).

Experiments:
[1] = test system: acetic acid-induced writhing in mice; assay: Acetic acid-induced writhing assay in mice; assay type: in vivo, ICR mice; conditions: mice
Procedure: 12: 525-562; Ramabadran and Bansinath (1986) Pharm. Res. 3: 263-270]. Intraperitoneal administration of dilute acetic acid solution causes a writhing behavior in mice. A writhe is defined as a contraction of the abdominal muscles accompanied by an extension of the forelimbs and elongation of the body. The number of writhes observed in the presence and absence of test compounds is counted to determine the analgesic activity of the compounds.
Each day a writhing assay was performed, a vehicle control group of mice (n=6-8) that were treated identically to the test group (except that test compound was omitted from the injection dose) was always included and the average total number of writhes in this group used as the absolute reference point defining 0% decrease in pain perception for all other mice receiving a test compound on that day. Specifically, the total number of writhes of each mouse receiving the test compound was converted to % decrease in pain perception according to the following equation:
[formula] Where Wv is the mean number of writhes in vehicle-treated group and Wc is the number of writhes in compound-treated mouse.
Male ICR mice, 23-37 grams in weight, were weighed and placed in individual observation chambers (usually a 4000 ml glass beaker) with a fine layer of SANI-CHIPS rodent bedding at the bottom. […] After administration of the compound or vehicle control, mice were returned to their individual observation chambers awaiting the intraperitoneal administration of acetic acid solution. […] and acetic acid injection, a dose corresponding to 10 ml/kg of a 0.6% (v/v) acetic acid solution was then injected into the right lower quadrant of the abdomen. Immediately after the injection, the mouse was returned to its observation chamber and the recording of the number of writhes begun immediately. The number of writhes was counted over a 15-min period starting from the time of acetic acid injection, the data being collected over three separate 5 minute time periods (0-5 min, 5-10 min, and 10-15 min).
The data were reported as ED50, and Hill coefficient. […] The Hill coefficient is expressed as the arithmetic mean±sem calculated from the values obtained from the animals.
For dose-response analysis, raw data were converted to % maximum possible effect (% MPE) using the formula: % MPE=((test score−vehicle-treated score)/(0−vehicle-treated score))*100. Raw data were analyzed using a one-way ANOVA followed by Dunnett's post-tests. […] Compounds were administered by the intravenous route.

[2] = test system: mechanical hypersensitivity induced by L5/L6 spinal nerve ligation in rats; assay: Spinal nerve ligation (SNL) model of neuropathic pain; assay type: in vivo, rat; conditions: intravenous route
Procedure: The SNL model (Kim and Chung 1992) was used to induce chronic neuropathic pain. The rats were anesthetized with isoflurane, the left L5 transverse process was removed, and the L5 and L6 spinal nerves were tightly ligated with 6-0 silk suture. The wound was then closed with internal sutures and external staples. Fourteen days following SNL, baseline, post-injury and post-treatment values for non-noxious mechanical sensitivity were evaluated using 8 Semmes-Weinstein filaments (Stoelting, Wood Dale, Ill., USA) with varying stiffness (0.4, 0.7, 1.2, 2.0, 3.6, 5.5, 8.5, and 15 g) according to the up-down method (Chaplan et al. 1994). Animals were placed on a perforated metallic platform and allowed to acclimate to their surroundings for a minimum of 30 minutes before testing. The mean and standard error of the mean (SEM) were determined for each paw in each treatment group. Since this stimulus is normally not considered painful, significant injury-induced increases in responsiveness in this test are interpreted as a measure of mechanical allodynia. […] Compound (2) was administered by the intravenous route. FIG. 10 summarizes the results of these experiments.

[3] = test system: capsaicin-induced ocular pain; assay: Capsaicin-induced ocular pain, palpebral opening in rabbits; assay type: in vivo, albino New Zealand strain rabbits; conditions: 10-30 min. post capsaicin
[4] = test system: pancreatitis-induced abdominal hypersensitivity in rats; assay: Rat pancreatitis model (dibutylin dichloride), abdominal hypersensitivity; assay type: in vivo; conditions: intraperitoneal route
Procedure: Chronic pancreatic inflammation was induced in rats by intravenous administration of dibutylin dichloride (DBTC, Aldrich Milwaukee, Wis.) dissolved in 100% ethanol at a dose of 8 mg/kg under isofluorane anesthesia (2-3 liters/min, 4%/vol until anesthetized, then 2.5%/vol throughout the procedure. Control animals received the same volume of vehicle (100% ethanol) alone. Pancreatitis pain was assessed by determination of abdominal sensitivity to probing the abdomen of rats with a calibrated von Frey filament (4 g). Rats were allowed to acclimate in suspended wire-mesh cages for 30 min before testing. A response was indicated by the sharp withdrawal of the abdomen, licking of abdominal area, or whole body withdrawal. […] The mean occurrence of withdrawal events in each trial is expressed as the number of responses to 10 applications. Rats without inflammation of the pancreas typically display withdrawal frequencies to probing with von Frey filament of 0-1. The animals were allowed to recover for 6 days after DBTC administration prior to any pharmacological manipulations.
The number of positive responses, following abdominal probing (out of a possible 10), were recorded at each time point. […] Raw data were analyzed using a two-way repeated measures ANOVA followed by Bonferroni post-tests. […]

[5] = test system: pruritus induced by compound 48/80 in mice; assay: Pruritus model in mice, compound 48/80-induced scratching; assay type: in vivo, Swiss Webster mice; conditions: inhibition of scratching
Procedure: (§1) Groups of 10 (and in one case, 11) male Swiss Webster mice (25-30 g) were used. Each animal was weighed and allowed to acclimate for at least one hour in individual, rectangular observation boxes. The tails of mice were immersed for 30 seconds in warm water to dilate tail veins and the animals then received an intravenous injection of either vehicle (saline) or compound (2) (0.01, 0.03, 0.10 and 0.30 mg of free base/kg). Fifteen minutes later, each mouse was given either GNTI dihydrochloride (Tocris) (0.30 mg/kg; 0.25 ml/25 g) or compound 48/80 (Sigma) (50 μg in 0.10 ml saline) subcutaneously behind the neck. The animals were then observed in pairs (occasionally in threes) and the number of hind leg scratching movements directed at the neck was counted for 30 minutes. […]

[6] = test system: pruritus induced by GNTI in mice; assay: Pruritus model in mice, GNTI-induced scratching; assay type: in vivo, Swiss Webster mice; conditions: inhibition of scratching
Procedure: as §1

## CC(C)C[C@@H](NC(=O)[C@@H](Cc1ccccc1)NC(=O)[C@H](N)Cc1ccccc1)C(=O)N[C@H](CCCCN)C(=O)N1CCC(N)(C(=O)O)CC1 [Compound (2), D-Phe-D-Phe-D-Leu-D-Lys-[ω(4-aminopiperidine-4-carboxylic acid)]-OH]
[1]; intravenously, 0.01 mg/kg to 0.3 mg/kg
  dose response in the acetic acid-induced writhing model: linear dose response relationship
[1]; iv, 15 min post-dose
  ED50 (mg/kg, iv, 15 min post-dose): 0.07 mg/kg
[1]; iv, 180 min post-ED90
  % MPE (180 min post-ED90): 77 ± 5% MPE
[1]; iv, 240 min post-ED90
  % MPE (240 min post-ED90): 81 ± 4% MPE
[1]; iv, 300 min post-ED90
  % MPE (300 min post-ED90): 84 ± 4% MPE
[2]
  ED50, attenuation of mechanical hypersensitivity (SNL model): 0.38 mg/kg
[3]; Table VII, 10 mg/ml, five animals
  Mean palpebral opening (% Control): 82.7 % Control
[3]; Table VIII, 1 mg/ml, ten animals
  Mean palpebral opening (% Control): 60.5 % Control
[3]; Table VIII, 10 mg/ml, ten animals
  Mean palpebral opening (% Control): 56.6 % Control
[3]; Table VIII, 25 mg/ml, ten animals
  Mean palpebral opening (% Control): 75.5 % Control
[3]; Table VIII, 50 mg/ml, ten animals
  Mean palpebral opening (% Control): 87.5 % Control
[4]
  ED50, attenuation of abdominal hypersensitivity (pancreatitis model): 0.03 mg/kg
[5]
  Compound 48/80 Model ED50 (mg/kg, iv, 15 min post-dose): 0.08 (0.04-0.2) mg/kg
[6]
  GNTI Model ED50 (mg/kg, iv, 15 min post-dose): 0.05 (0.02-0.1) mg/kg
